Measured values taken from PubChem BioAssay (NCI).
Where “and” joins values, the source holds several entries; their conditions need not be identical. Identical values can stand only once.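 Where inhibition never reached the appropriate level, the endpoint shown equals the highest concentration tested. Otherwise, values were interpolated linearly from a five-concentration, 48-hour dose response in 96-well plates. GI50: concentration for 50% inhibition of growth. TGI marks complete inhibition of growth.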

Experiments:
Test in all cases: growth of human tumour cells (NCI), 48 h
A498 renal = tested on: A498 renal
CAKI-1 renal = tested on: CAKI-1 renal
HCC-2998 colon = tested on: HCC-2998 colon
HCT-116 colon = tested on: HCT-116 colon
HOP-92 NSCLC = tested on: HOP-92 NSCLC
SK-MEL-28 melanoma = tested on: SK-MEL-28 melanoma
SW-620 colon = tested on: SW-620 colon
UO-31 renal = tested on: UO-31 renal
BT-549 breast = tested on: BT-549 breast
DU-145 prostate = tested on: DU-145 prostate

SMILES | TGI (A498 renal) | TGI (CAKI-1 renal) | TGI (HCC-2998 colon) | TGI (HCT-116 colon) | TGI (HOP-92 NSCLC) | TGI (SK-MEL-28 melanoma) | TGI (SW-620 colon) | TGI (UO-31 renal) | TGI (BT-549 breast) | GI50 (A498 renal) | GI50 (BT-549 breast) | GI50 (CAKI-1 renal) | GI50 (DU-145 prostate) | TGI (DU-145 prostate) | GI50 (HCT-116 colon) | GI50 (HOP-92 NSCLC) | GI50 (SK-MEL-28 melanoma) | GI50 (SW-620 colon) | GI50 (UO-31 renal) | GI50 (HCC-2998 colon)
COc1cc(Br)c(C=Nc2cccc3ccc(OS(=O)(=O)c4cccc([N+](=O)[O-])c4)cc23)cc1OC | > 100 µM | > 100 µM | > 100 µM | > 100 µM | 35.3 µM | > 100 µM | > 100 µM | > 100 µM | – | – | – | – | – | – | – | – | – | – | – | –
Cc1ccc(S(=O)(=O)N=Nc2c(O)[nH]c3c(Cl)cc(Cl)cc23)cc1 | > 100 µM | > 100 µM | > 100 µM | > 100 µM | > 100 µM | > 100 µM | > 100 µM | > 100 µM | > 100 µM | – | – | – | – | – | – | – | – | – | – | –
CCOC(=O)CC1NC(=O)CS1 (stereo not given) | > 100 µM | > 100 µM | > 100 µM | 61.7 µM | > 100 µM | > 100 µM | 37.4 µM | > 100 µM | – | – | – | – | – | – | – | – | – | – | – | –
O=c1ccc(=O)c2c(=O)c3ccccc3c(=O)c1=2 | > 100 µM | > 100 µM | > 100 µM | 61.1 µM | > 100 µM | > 100 µM | > 100 µM | > 100 µM | – | – | – | – | – | – | – | – | – | – | – | –
CCN(CC)CCCC(C)Nc1c2ccc(C)cc2nc2ccc(OC)cc12 (stereo not given) | 13.8 µM | 8.98 µM | – | 6.46 µM | 5.1 µM | 3.35 µM | 10.2 µM | 2.36 µM | 27.3 µM | 0.863 µM | 10.7 µM | 2.68 µM | 1.65 µM | 8.83 µM | 0.585 µM | 0.885 µM | 1.87 µM | 0.709 µM | 1.05 µM | –
BrC1(Br)C2/C=C\CCCCC21 (stereo not given) | > 100 µM | > 100 µM | > 100 µM | > 100 µM | > 100 µM | > 100 µM | > 100 µM | – | – | – | – | – | – | – | – | – | – | – | – | –
N.N.N.N.N.N.O=N[O-].[Br-].[Co+3].[Co+3].[OH3+].[OH3+] | – | – | > 100 µM | – | > 100 µM | > 100 µM | > 100 µM | > 100 µM | – | – | – | – | – | – | – | > 100 µM | > 100 µM | > 100 µM | > 100 µM | 58.5 µM
c1cc(CNC2C3CCC(C3)C2c2c[nH]c3ccccc23)cc(CNC2C3CCC(C3)C2c2c[nH]c3ccccc23)c1 (stereo not given) | – | – | – | – | 2.33 µM and 2.63 µM | 2.3 µM and 1.51 µM | > 100 µM | – | 3.24 µM | – | – | – | – | 2.3 µM | – | 1.09 µM and 1.29 µM | 1.01 µM and 0.343 µM | 2.11 µM and 0.386 µM | – | –
CCOc1ccccc1NC(=O)CCc1nc(=S)[nH][nH]1 | – | > 100 µM | > 100 µM | > 100 µM | > 100 µM | > 100 µM | > 100 µM | > 100 µM | – | – | – | – | – | – | – | – | – | – | – | –
O=C1C2Cc3ccccc3CN2C(=O)N1CCN1CCCC1 (stereo not given) | > 100 µM | > 100 µM | > 100 µM | – | – | > 100 µM | > 100 µM | > 100 µM | – | – | – | – | – | – | – | – | – | – | – | –
O=C1Nc2cccc3cc(NCC(O)CCl)cc1c23 (stereo not given) | – | > 100 µM | > 100 µM | > 100 µM | > 100 µM | > 100 µM | > 100 µM | 92.1 µM | > 100 µM | – | – | – | – | > 100 µM | – | – | – | – | – | –
O=C1CCC(O)=C1O | > 100 µM | > 100 µM | > 100 µM | > 100 µM | > 100 µM | > 100 µM | > 100 µM | – | – | – | – | – | – | – | – | – | – | – | – | –
